# According to patent publication US20160202242A1, “CELL DEATH-INDUCING AGENT, CELL GROWTH-INHIBITING AGENT, AND PHARMACEUTICAL COMPOSITION FOR TREATMENT OF DISEASE CAUSED BY ABNORMAL CELL GROWTH” (Nitto Denko Corporation, priority 2014, published 2016):
# d = 2'-deoxy (DNA); r = 2'-OH (RNA)
# Columns and labels:
# Format in all cases: cell-based, human
# M7609 cells = test: Senescence beta-galactosidase staining 13 days after inoculation, GST-π knocked down three times; details: GST-π siRNA 30 nM added three times
# Procedure: (§1) As examples of cancer cells, 1×10^5 M7609 cells (human colorectal cancer cells having KRAS mutation) and PANC-1 cells (human pancreatic cancer cells having KRAS mutation) were inoculated to 6 cm Petri dishes and cultured for 18 hours in Roswell Park Memorial Institute 1640 (RPMI 1640, Sigma-Aldrich Corp.) supplemented with 10% fetal bovine serum (FBS) and 0.5% L-glutamine. The culture conditions were 37° C. and 5% CO2, unless otherwise specified. Moreover, as an example of cancer cells, 0.5×10^5 A549 cells (human lung cancer cells having KRAS mutation) were inoculated to a 6 cm Petri dish and cultured for 18 hours in a Dulbecco's modified Eagle's medium (DMEM, Sigma-Aldrich Corp.) supplemented with 10% FBS and 1% L-glutamine. Furthermore, as an example of cancer cells, 1×10^5 MIA PaCa-2 cells (human pancreatic cancer cell having KRAS mutation) were inoculated to a 6 cm Petri dish and cultured for 18 hours in DMEM supplemented with 10% FBS and 1% L-glutamine. Furthermore, as an example of cancer cells, 0.5×10^5 HCT116 cells (human colorectal cancer cells having KRAS mutation) were inoculated to a 6 cm Petri dish and cultured for 18 hours in McCoy's 5A Medium (McCoy, Sigma-Aldrich Corp.) supplemented with 10% FBS and 0.5% L-glutamine.
# Whether the cell senescence as shown in FIGS. 6 to 9 was could be induced by knocking down GST-π was tested using the M7609 cells. […]
# [1] = test system: PANC-1, MIA PaCa-2, or A549 cells; test: Number of cells counted after 5 days of culture, single siRNA transfection; details: siRNA 50 nM plus control siRNA 50 nM
# Procedure: as §1, with “Furthermore, as an example of cancer cells, 0.5×10^5 HCT116 cells (human colorectal cancer cells having KRAS mutation) were inoculated to a 6 cm Petri dish and cultured for 18 hours in McCoy's 5A Medium (McCoy, Sigma-Aldrich Corp.) supplemented with 10% FBS and 0.5% L-glutamine.” left out
# Meanwhile, the influence of GST-π siRNA and/or P21 siRNA on the number of cells was tested. […] After culture for 5 days without the replacement of the medium, the cells were dissociated and collected from the Petri dish by trypsin treatment, and the number of cells was counted.
# P21 mRNA [2] = test: P21 mRNA level by quantitative PCR 1 day after siRNA transfection; details: PANC-1, MIA PaCa-2, or A549 cells, GST-π siRNA 50 nM or 100 nM, vs control siRNA
# Procedure: As examples of cancer cells, 1×10^5 M7609 cells (human colorectal cancer cells having KRAS mutation) and PANC-1 cells (human pancreatic cancer cells having KRAS mutation) were inoculated to 6 cm Petri dishes and cultured for 18 hours in Roswell Park Memorial Institute 1640 (RPMI 1640, Sigma-Aldrich Corp.) supplemented with 10% fetal bovine serum (FBS) and 0.5% L-glutamine. The culture conditions were 37° C. and 5% CO2, unless otherwise specified. Moreover, as an example of cancer cells, 0.5×10^5 A549 cells (human lung cancer cells having KRAS mutation) were inoculated to a 6 cm Petri dish and cultured for 18 hours in a Dulbecco's modified Eagle's medium (DMEM, Sigma-Aldrich Corp.) supplemented with 10% FBS and 1% L-glutamine. […]
# GST-π siRNA and P21 siRNA each at a final concentration of 50 nM, GST-π siRNA or P21 siRNA at a final concentration of 50 nM (both added with control siRNA at a final concentration of 50 nM), or GST-π siRNA at a final concentration of 100 nM (without the addition of control siRNA) were added to each of the Petri dishes containing the PANC-1, MIA PaCa-2, or A549 cells. […] After culture for 1 day without the replacement of the medium, the GST-π mRNA level and the P21 mRNA level were quantified by quantitative PCR using 7300 Real Time PCR System (Applied Biosystems, Inc.).
# P21 mRNA [3] = test: P21 mRNA level quantified every day to the 4th day after siRNA addition; details: A549 or MIA PaCa-2 cells, siRNA 50 nM
# Procedure: As examples of cancer cells, 1×10^5 M7609 cells (human colorectal cancer cells having KRAS mutation) and PANC-1 cells (human pancreatic cancer cells having KRAS mutation) were inoculated to 6 cm Petri dishes and cultured for 18 hours in Roswell Park Memorial Institute 1640 (RPMI 1640, Sigma-Aldrich Corp.) supplemented with 10% fetal bovine serum (FBS) and 0.5% L-glutamine. The culture conditions were 37° C. and 5% CO2, unless otherwise specified. Moreover, as an example of cancer cells, 0.5×10^5 A549 cells (human lung cancer cells having KRAS mutation) were inoculated to a 6 cm Petri dish and cultured for 18 hours in a Dulbecco's modified Eagle's medium (DMEM, Sigma-Aldrich Corp.) supplemented with 10% FBS and 1% L-glutamine. Furthermore, as an example of cancer cells, 1×10^5 MIA PaCa-2 cells (human pancreatic cancer cell having KRAS mutation) were inoculated to a 6 cm Petri dish and cultured for 18 hours in DMEM supplemented with 10% FBS and 1% L-glutamine. […]
# Moreover, as for the case where GST-π siRNA or control siRNA at a final concentration of 50 nM was added to each of the Petri dishes containing the A549 cells or the MIA PaCa-2 cells, the P21 mRNA level was similarly quantified every day from the day of addition of GST-π siRNA or control siRNA to the 4th day.
# [4] = test system: A549 cells, MIA PaCa-2 cells, PANC-1 cells, and HCT116 cells; test: Phase difference images of cells after knockdown three times; details: knocked down three times; 7 days after inoculation
# Procedure: As examples of cancer cells, 1×10^5 M7609 cells (human colorectal cancer cells having KRAS mutation) and PANC-1 cells (human pancreatic cancer cells having KRAS mutation) were inoculated to 6 cm Petri dishes and cultured for 18 hours in Roswell Park Memorial Institute 1640 (RPMI 1640, Sigma-Aldrich Corp.) supplemented with 10% fetal bovine serum (FBS) and 0.5% L-glutamine. The culture conditions were 37° C. and 5% CO2, unless otherwise specified. […]
# First, for the PANC-1 cells, the MIA PaCa-2 cells, or the HCT116 cells, GST-π siRNA and P21 siRNA each at a final concentration of 25 nM, or GST-π siRNA or P21 siRNA at a final concentration of 25 nM (all added with control siRNA at a final concentration of 25 nM) were added to each of the Petri dishes, while for the A549 cells, GST-π siRNA and P21 siRNA each at a final concentration of 50 nM, or GST-π siRNA or P21 siRNA at a final concentration of 50 nM (added with control siRNA at a final concentration of 50 nM) were added to each of the Petri dishes. […] Seven days after the cell inoculation, the cells were dissociated and collected from the Petri dish by trypsin treatment, and the number of cells was counted. […]
Substance,"cell senescence (flat and large cells, blue color development by galactosidase staining) (M7609 cells)","number of cells, each siRNA alone [1]",amount of P21 mRNA (P21 mRNA [2]),expression level of P21 mRNA over time (P21 mRNA [3]),cell morphology / cell senescence-like phenotype in phase difference image [4]
"GST-π siRNA: siRNA against GST-π; sense GGGAGGCAAGACCUUCAUUtt (SEQ ID NO: 31), antisense AAUGAAGGUCUUGCCUCCCtg (SEQ ID NO: 32) (sense GGGAGGCAAGACCUUCAUUTT; antisense AAUGAAGGUCUUGCCUCCCTG; sugars from the 5' end r19 d2, backbone not given here)",cell senescence was evoked,"the number of cells cannot be decreased with respect to the number of inoculated cells, though cell growth is inhibited",increased,increased over time,became flat and large cells
"P21 siRNA: siRNA against P21; sense UCCUAAGAGUGCUGGGCAUtt (SEQ ID NO: 33), antisense AUGCCCAGCACUCUUAGGAtt (SEQ ID NO: 34) (sense UCCUAAGAGUGCUGGGCAUTT; antisense AUGCCCAGCACUCUUAGGATT; sugars from the 5' end r19 d2, backbone not given here)",–,"the number of cells cannot be decreased with respect to the number of inoculated cells, though cell growth is inhibited",–,–,–
